Reference: patent US10302631B2, “Genetically encoded probe for quantification of pyruvate concentration and methods of using the same” (CENTRO DE ESTUDIOS CLENTIFICOS DE VALDIVIA, priority 2013, dated 2019)

Assays:
HEK293 cells = experiment: Rate of cellular pyruvate production after MCT blockage; assay type: cell-based
Description: In this second embodiment cells are incubated under physiological concentrations of glucose, lactate and pyruvate, and with the information obtained in the calibration step and the known sensitivity of surface pyruvate transporters to specific inhibitors, the steady-state of pyruvate is acutely disrupted by blocking the function of pyruvate transporter, for example by addition of a pharmacological blocker of the pyruvate transporter. In mammalian cells, the pyruvate transporter is the MCT and can be blocked with phloretin, parachloromercurybenzoate, AR-C155858, anti-MCT antisera, or other suitable compounds. […] If the cell is a net pyruvate importer, application of the MCT-blocker causes a fall in intracellular pyruvate concentration, the initial rate of which is equal to the rate of pyruvate consumption on the steady-state. […] A critical property of this sensor is that has a single component of binding so that it allows accurate quantitation of these rates. […]
Fluorescence Measurements. Nickel-purified proteins were resuspended at 100 nM in an intracellular buffer containing (mM): 10 NaCl, 130 KCl, 1.25 MgSO4 and 10 HEPES, pH 7.0, and measured with a microplate reader analyzer (EnVision, PerkinElmer). The proteins were excited at 430 nm and the intensity of fluorescence emission of mTFP and Venus were recorded at 485 nm (FmTFP) and 528 nm (FVenus), respectively. […]

[1] = tested on: monocarboxylate transporter (MCT); experiment: Initial rate of uptake of 1 mM pyruvate measured with the sensor, inhibition by MCT blockers; assay type: cell-based, mice; conditions: astrocytic uptake
Description: In this first embodiment, with the information obtained in the calibration step, the disruption of the steady-state of pyruvate entering the cell is carried out by altering the extracellular concentration of pyruvate, thus exposing the cells to pyruvate. This causes a rise in intracellular pyruvate that is monitored with the pyruvate sensor and whose initial rate is independent of pyruvate metabolism and can be used to estimate kinetic parameters (FIG. 18). Exposure of the cells to increasing concentrations of pyruvate allows the estimation of kinetic parameters for the pyruvate transporter. Kinetic parameters are also obtained from the decrease in intracellular pyruvate after removal of extracellular pyruvate. The identity of the transport pathway for pyruvate can be determined by the use of pharmacological blockers of specific transporter proteins, such as phloretin or AR-C155858 (FIG. 18 and FIG. 19), or other such as parachloromercurybenzoate, anti-MCT antisera, etc., or with compounds that interfere with the expression of specific transporter proteins, such as shRNA or siRNA, or by other similar means.
Animals and Cell Cultures. […]
Fluorescence Measurements. Nickel-purified proteins were resuspended at 100 nM in an intracellular buffer containing (mM): 10 NaCl, 130 KCl, 1.25 MgSO4 and 10 HEPES, pH 7.0, and measured with a microplate reader analyzer (EnVision, PerkinElmer). […]

[2] = tested on: mitochondrial pyruvate consumption in HEK293 cells; experiment: Rate of mitochondrial pyruvate consumption, pyruvate as exclusive substrate, after MCT blockage; assay type: cell-based
Pyronic = experiment: Specificity: effect of a panel of metabolites on the purified sensor and on its response to pyruvate; assay type: biochemical, Escherichia coli
Description: The specificity was investigated by exposing the sensor to high concentrations of a panel of metabolites of natural occurrence (FIG. 9). From the chosen set of molecules, citrate and oxalacetate produced a modest effect at 1 mM, and a very small at 100 μM Oxalacetate levels are in the low micromolar range and should not affect the pyruvate sensor, and cytosolic citrate levels are below 100 μM (Siess et al., 1978; Kauppinen et al., 1982), and therefore should have a negligible effect on the pyruvate sensor. Further to explore the specificity, the effect of a panel of metabolites on the response of the sensor to pyruvate was explored (FIGS. 10, 11 and 12). […] The response of the sensor to pyruvate was insensitive to the extreme values of the redox ratio, achieved by manipulating NAD^+ and NADH (FIG. 13).
Fluorescence Measurements. Nickel-purified proteins were resuspended at 100 nM in an intracellular buffer containing (mM): 10 NaCl, 130 KCl, 1.25 MgSO4 and 10 HEPES, pH 7.0, and measured with a microplate reader analyzer (EnVision, PerkinElmer). The proteins were excited at 430 nm and the intensity of fluorescence emission of mTFP and Venus were recorded at 485 nm (FmTFP) and 528 nm (FVenus), respectively. The ratio (R) between FmTFP and FVenus was used to characterize the sensors. Emission spectra were obtained at 430 nm excitation, with 2 nm windows. Cells were imaged at room temperature (22-25° C.) in a 95% air/5% CO2-gassed solution of the following composition (in mM): 112 NaCl, 1.25 CaCl2, 1.25 MgSO4, 1-2 glucose, 10 HEPES, 24 NaHCO^3, pH 7.4, with 3 mM KCl (astrocytes) or 5 mM KCl (HEK and T98G) using an upright Olympus FV1000 Confocal Microscope equipped with a 20× water immersion objective (N.A. 1.0) and a 440 nm solid-state laser. Alternatively, cells were imaged with an Olympus IX70 or with an Olympus BX51 microscope equipped with a 40× oil-immersion objective (NA 1.3) or with a 20× water-immersion objective (NA 0.95). Microscopes were equipped with CAIRN monochromators (Faversham, UK), and either a Hamamatsu Orca camera controlled by Kinetics software or a Rollera camera controlled with Metafluor software, respectively. For sensor ratio measurements, cells were excited at 430 nm for 0.2-0.8 s. Emission was divided with a CAIRN Optosplit, equipped with band pass filters at 480±20 (FmTFP) and 535±15 nm (FVenus). The ratio between FmTFP and FVenus was used to measure pyruvate.

## Cc1n[nH]c(C)c1Cc1sc2c(c1C(=O)N1C[C@H](O)CO1)c(=O)n(C)c(=O)n2CC(C)C [AR-C155858]
HEK293 cells; HEK293 cells, blocker at 1 μM
  change in intracellular pyruvate after MCT blockage: increase in intracellular pyruvate
HEK293 cells; single HEK293 cell
  rate of accumulation of intracellular pyruvate after MCT blockage: 0.72 µM/s
[1]; blocker at 1 μM
  inhibition of initial rate of uptake of 1 mM pyruvate: strongly inhibited
[2]; cells deprived of glucose, high extracellular pyruvate
  change in cytosolic pyruvate concentration after MCT blockage: fall in the cytosolic pyruvate concentration
[2]; single HEK293 cell, pyruvate as exclusive substrate
  rate of decrease in intracellular pyruvate after MCT blockage: 1.73 µM/s

## O=C(O)CC(O)(CC(=O)O)C(=O)O [citrate]
Pyronic; metabolite at 100 μM
  effect on the fluorescence ratio of the sensor: very small
  effect on the response of the sensor to pyruvate: very small effect
Pyronic; metabolite at 1 mM
  effect on the fluorescence ratio of the sensor: modest effect
  effect on the response of the sensor to pyruvate: significant effect

## O=C(O)CC(=O)C(=O)O [oxalacetate]
Pyronic; metabolite at 100 μM
  effect on the fluorescence ratio of the sensor: very small
Pyronic; metabolite at 1 mM
  effect on the fluorescence ratio of the sensor: modest effect

## O=C(CCc1ccc(O)cc1)c1c(O)cc(O)cc1O [phloretin]
[1]; blocker at 50 μM
  inhibition of initial rate of uptake of 1 mM pyruvate: strongly inhibited
